According to patent US20240058365A1, “External Preparation for Treating Epilepsy or Autism Spectrum Disorder” (OSAKA UNIVERSITY, priority 2019, published 2024):
Values joined by “and” are separate entries in the source; they are usually repeats but may differ in a detail not shown here. Equal values may be shown once.

Assays:
[1] = Test Example 6: blood concentration after 7-day topical application; format: in vivo, ICR mice; conditions: 0.2 wt % sirolimus gel 5 mg (10 μg sirolimus) on shaved forehead once a day, 7 days; 24 hours after last; individual mice
Experimental: ICR mice (body weight: about 37 g) were obtained (Japan SLC, Inc.). The 0.2 wt % sirolimus gel prepared in Production Example 3 or a placebo (only the base) was applied to their shaved forehead once a day at 5 mg each (10 μg in terms of sirolimus). After 24 hours from the administration on the 7th day, blood was collected from each of the mice, and blood sirolimus concentration was measured.
(§1) The measurement of the blood concentration was performed by the same method as in Test Example 3. The blood concentration after the topical application to the skin was one 26th in terms of average value as compared to the blood concentration after systemic administration by the intraperitoneal administration. […] The action mechanism by which epileptic seizures are suppressed through systemic administration and the mechanism by which epileptic seizures are suppressed through topical application may differ from each other.

[2] = test system: Tuberous sclerosis complex model mice; assay: Test Example 5: number of epileptic seizures (intraperitoneal administration); format: in vivo; conditions: intraperitoneal 3 mg/kg/day once a day for 7 days; observed 2 minutes 5 times per day; n=6
Experimental: FIG. 3 is a graph showing results obtained by intraperitoneally administering sirolimus (3 mg/kg/day) or saline to model mice and control mice (normal mice) once a day for 7 days (n=6 in each group). Homo represents tuberous sclerosis complex model mice, and Ct represents control mice (normal mice). *P<0.05, **P<0.01
Sirolimus (3 mg/kg/day) or a placebo (saline) was intraperitoneally administered to model mice and normal mice similar to those in Test Example 1 once a day for 7 days. The number of seizures was measured by observing the mice for 2 minutes 5 times per day (n=6 in each group). […] The number of seizures over 7 days in the group intraperitoneally administered sirolimus was about 5, which was nearly equal to the number of seizures in the case where the 0.2 wt % sirolimus gel was administered to the forehead once a day at 5 mg (10 μg in terms of sirolimus).

[3] = Test Example 6: blood concentration after 7-day intraperitoneal administration; format: in vivo, mice (C57BL/6J); conditions: intraperitoneal 3 mg/kg/day for 7 days; 24 hours after the 7th administration; individual mice
Experimental: Sirolimus (3 mg/kg/day) or a placebo (saline) was intraperitoneally administered to mice (C57BL/6J, body weight: 20 g) once a day for 7 days. After 24 hours from the administration on the 7th day, blood was collected from each of the mice, and blood sirolimus concentration was measured.
as §1

Q: Which blood sirolimus concentration [1] does the source give for `CO[C@H]1C[C@@H]2CC[C@@H](C)[C@@](O)(O2)C(=O)C(=O)N2CCCC[C@H]2C(=O)O[C@H]([C@H](C)C[C@@H]2CC[C@@H](O)[C@H](OC)C2)CC(=O)[C@H](C)/C=C(\C)[C@@H](O)[C@@H](OC)C(=O)[C@H](C)C[C@H](C)/C=C/C=C/C=C/1C` [Sirolimus, sirolimus] here?
A: Its blood sirolimus concentration is 3.87 ng/ml · blood and 2.85 ng/ml · blood and 5.98 ng/ml · blood.

Q: And the “number of seizures over 7 days” value [2]?
A: The value was “about 5”.

Q: What about the blood sirolimus concentration [3] of the same molecule?
A: The blood sirolimus concentration was 94.43 ng/ml · blood and 85.59 ng/ml · blood and 48.55 ng/ml · blood and 216.83 ng/ml · blood.
